# Measurements reported in patent US20230072421A1, “TARGETED RADIOPHARMACEUTICALS FOR THE DIAGNOSIS AND TREATMENT OF PROSTATE CANCER” (Bayer AS, priority 2019, published 2023).
# Columns and labels:
# [1] = system: VCaP cells; test: Cell proliferation assay (CellTiter-Glo, 5-day exposure), VCaP; type: cell-based; conditions: 4000 cells/well, Th-227 labelled at 375 kBq/nmol, mean of 1 to 6 experiments
# How it was run: (§1)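 Growth inhibition by radiolabelled (Th-227) PSMA small-molecule ligands is measured as ATP luminescence after 5 days of treatment, referenced to a day-0 reading from sister plates. VCaP are seeded at 4000 cells/well, the remaining lines at 1000 cells/well.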
# [2] = system: C4-2 cells; test: Cell proliferation assay (CellTiter-Glo, 5-day exposure), C4-2; type: cell-based; conditions: C4-2, 1000 cells/well, Th-227 labelled at 375 kBq/nmol, mean of 1 to 6 experiments
# How it was run: as §1
# [3] = system: 22Rv1 cells; test: Cell proliferation assay (CellTiter-Glo, 5-day exposure), 22Rv1; type: cell-based; conditions: 22Rv1, 1000 cells/well, Th-227 labelled at 375 kBq/nmol, mean of 1 to 6 experiments
# How it was run: as §1
# [4] = system: LNCaP human prostate cancer cells; test: LNCaP xenograft efficacy study (T/C tumor area); type: in vivo, SCID mice
# Experimental: (§2) SCID mice were randomly assigned to experimental groups, ten animals per group (efficacy) or n=3-5 per time point of biodistribution study. At the initiation of the study, a testosterone pellet was subcutaneously transplanted, the animals were shaved, tattooed and each cage was labeled with the cage number, study number and number of animals per cage.
# (§3) LNCaP human prostate cancer cells were cultured as described according to the supplier's protocols. Cells were harvested for transplantation in a subconfluent (70%) state. Animals were injected with 5×10^6 LNCaP cells suspended in 100% Matrigel subcutaneously into the flank of the mice.
# Efficacy study: When tumors reached a predetermined size in mice of 35-50 mm^2 animals were randomized into treatment and control groups (n=10 animals/group) and treatment with the defined radioactive dose was started. The i.v. application volume was 100 μl/mice.
# Tumor response was assessed by determination of the tumor area (product of the longest diameter and its perpendicular) using a caliper. The animal body weight was monitored as a measure for treatment-related toxicity. Measurement of tumor area and body weight was performed two to three times weekly.
# Animals were sacrificed when showing signs of toxicity (>20% body weight loss) or when tumors reached a size of approximately 200 mm^2.
# Tumor growth inhibition is presented as T/C ratio (Treatment/Control) calculated with tumor areas when the vehicle control group had to be closed.
# [5] = Biodistribution study in LNCaP tumor-bearing mice (Th227 counted in organs); type: in vivo, SCID mice; conditions: 1500 kBq/kg
# Experimental: as §2, §3
# Biodistribution study: When tumors reached a predetermined size in mice of ˜50 mm^2 animals were randomized into groups (n=3 animals/time point) and the radioactive compound was once applied intravenously. The i.v. application volume was 100 μl/mice.
# At the predetermined time point, n=3 animals were sacrificed, the organs removed, weight and measured in a Germanium detector to count the Th227 in the sample.
smiles,measurement,setting,value
"O=C([O-])CN1CCN(CC(=O)[O-])CCN(CC(=O)NCc2ccc(C(=O)N[C@@H](Cc3ccc4ccccc4n3)C(=O)NCCCC[C@H](NC(=O)N[C@@H](CCC(=O)O)C(=O)O)C(=O)O)nc2)CCN(CC(=O)[O-])CC1.[227Th+4] [Example 34-B-227Th, {N^6-[3-(quinolin-2-yl)-N-{5-[(2-{4,7,10-tris[(carboxy-kappaO)methyl]-1,4,7,10-tetraazacyclododecan-1-yl-kappa^4N^1,N^4,N^7,N^10}acetamido)methyl]pyridine-2-carbonyl}-L-alanyl]-N^2-{[(1S)-1,3-dicarboxypropyl]carbamoyl}-L-lysinato(4−)}(^227Th)Thorate(1−)]",Proliferation assay on cancer cell lines by TTCs Default Pivot #3 IC50 [kBq/mL] VCap 4000cells 375kBq/nmol (mean),[1],1.75 kBq/mL
same,Proliferation assay on cancer cell lines by TTCs Default Pivot #3 IC50 [kBq/mL] C4-2 1000cells 375kBq/nmol (mean),[2],0.63 kBq/mL
same,Proliferation assay on cancer cell lines by TTCs Default Pivot #3 IC50 [kBq/mL] 22Rv1 1000cells 375kBq/nmol (mean),[3],0.76 kBq/mL
same,T/Carea,"[4]; Example III, day 64 after start of therapy, single treatment 1.5 MBq/kg",0.23
same,T/Carea,"[4]; Example IV, day 36 after start of therapy, once 1 MBq/kg",0.66
same,Th-227 in Blood,[5]; 0.25 h,1.78% ID Th-227/g organ
same,Th-227 in Liver,[5]; 0.25 h,1.69% ID Th-227/g organ
same,Th-227 in Spleen,[5]; 0.25 h,17.32% ID Th-227/g organ
same,Th-227 in Tumor,[5]; 0.25 h,6.33% ID Th-227/g organ
same,Th-227 in bone,[5]; 0.25 h,1.66% ID Th-227/g organ
same,Th-227 in brain,[5]; 0.25 h,0.12% ID Th-227/g organ
same,Th-227 in kidney,[5]; 0.25 h,62.53% ID Th-227/g organ
same,Th-227 in large intestine,[5]; 0.25 h,0.67% ID Th-227/g organ
same,Th-227 in lung,[5]; 0.25 h,4.04% ID Th-227/g organ
same,Th-227 in muscle,[5]; 0.25 h,1.02% ID Th-227/g organ
same,Th-227 in prostate,[5]; 0.25 h,0.00% ID Th-227/g organ
same,Th-227 in salivary glands,[5]; 0.25 h,3.14% ID Th-227/g organ
same,Th-227 in small intestine,[5]; 0.25 h,1.36% ID Th-227/g organ
same,Accumulation in the tumor (in words),[5],good and stable accumulation in the tumor
same,Th-227 in Blood,[5]; 1 hr,0.58% ID Th-227/g organ
same,Th-227 in Liver,[5]; 1 hr,0.88% ID Th-227/g organ
same,Th-227 in Spleen,[5]; 1 hr,19.69% ID Th-227/g organ
same,Th-227 in Tumor,[5]; 1 hr,9.15% ID Th-227/g organ
same,Th-227 in bone,[5]; 1 hr,1.27% ID Th-227/g organ
same,Th-227 in brain,[5]; 1 hr,0.02% ID Th-227/g organ
same,Th-227 in kidney,[5]; 1 hr,69.22% ID Th-227/g organ
same,Th-227 in large intestine,[5]; 1 hr,0.45% ID Th-227/g organ
same,Th-227 in lung,[5]; 1 hr,2.79% ID Th-227/g organ
same,Th-227 in muscle,[5]; 1 hr,0.54% ID Th-227/g organ
same,Th-227 in prostate,[5]; 1 hr,0.62% ID Th-227/g organ
same,Th-227 in salivary glands,[5]; 1 hr,1.75% ID Th-227/g organ
same,Th-227 in small intestine,[5]; 1 hr,0.64% ID Th-227/g organ
same,Th-227 in Blood,[5]; 4 hr,0.07% ID Th-227/g organ
same,Th-227 in Liver,[5]; 4 hr,0.55% ID Th-227/g organ
same,Th-227 in Spleen,[5]; 4 hr,11.57% ID Th-227/g organ
same,Th-227 in Tumor,[5]; 4 hr,7.00% ID Th-227/g organ
same,Th-227 in bone,[5]; 4 hr,1.44% ID Th-227/g organ
same,Th-227 in brain,[5]; 4 hr,0.00% ID Th-227/g organ
same,Th-227 in kidney,[5]; 4 hr,65.52% ID Th-227/g organ
same,Th-227 in large intestine,[5]; 4 hr,0.79% ID Th-227/g organ
same,Th-227 in lung,[5]; 4 hr,1.48% ID Th-227/g organ
same,Th-227 in muscle,[5]; 4 hr,0.41% ID Th-227/g organ
same,Th-227 in prostate,[5]; 4 hr,4.08% ID Th-227/g organ
same,Th-227 in salivary glands,[5]; 4 hr,1.05% ID Th-227/g organ
same,Th-227 in small intestine,[5]; 4 hr,1.13% ID Th-227/g organ
same,Th-227 in Blood,[5]; 24 h,0.01% ID Th-227/g organ
same,Th-227 in Liver,[5]; 24 h,0.23% ID Th-227/g organ
same,Th-227 in Spleen,[5]; 24 h,1.21% ID Th-227/g organ
same,Th-227 in Tumor,[5]; 24 h,10.56% ID Th-227/g organ
same,Th-227 in bone,[5]; 24 h,1.21% ID Th-227/g organ
same,Th-227 in brain,[5]; 24 h,0.00% ID Th-227/g organ
same,Th-227 in kidney,[5]; 24 h,21.02% ID Th-227/g organ
same,Th-227 in large intestine,[5]; 24 h,0.10% ID Th-227/g organ
same,Th-227 in lung,[5]; 24 h,0.27% ID Th-227/g organ
same,Th-227 in muscle,[5]; 24 h,0.00% ID Th-227/g organ
same,Th-227 in prostate,[5]; 24 h,0.00% ID Th-227/g organ
same,Th-227 in salivary glands,[5]; 24 h,0.11% ID Th-227/g organ
same,Th-227 in small intestine,[5]; 24 h,0.08% ID Th-227/g organ
same,Th-227 in Blood,[5]; 96 h,0.00% ID Th-227/g organ
same,Th-227 in Liver,[5]; 96 h,0.19% ID Th-227/g organ
same,Th-227 in Spleen,[5]; 96 h,0.43% ID Th-227/g organ
same,Th-227 in Tumor,[5]; 96 h,9.97% ID Th-227/g organ
same,Th-227 in bone,[5]; 96 h,1.08% ID Th-227/g organ
same,Th-227 in brain,[5]; 96 h,0.00% ID Th-227/g organ
same,Th-227 in kidney,[5]; 96 h,9.71% ID Th-227/g organ
same,Th-227 in large intestine,[5]; 96 h,1.44% ID Th-227/g organ
same,Th-227 in lung,[5]; 96 h,0.13% ID Th-227/g organ
same,Th-227 in muscle,[5]; 96 h,0.00% ID Th-227/g organ
same,Th-227 in prostate,[5]; 96 h,0.00% ID Th-227/g organ
same,Th-227 in salivary glands,[5]; 96 h,0.10% ID Th-227/g organ
same,Th-227 in small intestine,[5]; 96 h,0.25% ID Th-227/g organ
